Our source for the IC50 values is patent US8148367B2 (Takeda Pharmaceutical Company Limited, priority 2008, dated 2012).

This assay deals with T1, Recombinant human renin (Homo sapiens, UniProt P00797).
T1 construct: isolate the active form (residues 67-406); made in house; host or cells: FreeStyle 293-F cells, transient expression of pcDNA3.1(+)/hREN
T1 sequence (P00797 67-406): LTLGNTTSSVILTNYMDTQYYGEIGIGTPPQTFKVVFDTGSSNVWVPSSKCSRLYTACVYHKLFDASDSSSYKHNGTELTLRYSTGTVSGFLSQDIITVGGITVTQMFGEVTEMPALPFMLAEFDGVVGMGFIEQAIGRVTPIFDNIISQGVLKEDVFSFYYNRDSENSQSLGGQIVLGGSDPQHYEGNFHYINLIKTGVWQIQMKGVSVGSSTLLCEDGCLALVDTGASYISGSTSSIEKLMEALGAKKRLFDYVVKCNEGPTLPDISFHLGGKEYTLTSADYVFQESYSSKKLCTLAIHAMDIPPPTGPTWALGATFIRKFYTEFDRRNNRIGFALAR
The experiment in a line: In vitro enzymatic activity assay of renin inhibitors (fluorescence, QXL520/HiLyteFluo488 peptide substrate). The assay is classed as biochemical.

[1] abbreviates: recombinant human renin 3 nM, 1 μM substrate, pre-incubated 10 minutes at 37° C., incubation one hour, pH 7.4, 5% DMSO, read-out: IC50 of Exemplified Compounds Against Renin.

Read-outs that look alike come from different tables or passages of the source.

Consider `Cc1ccccc1-n1c(-c2ccccc2)c(C(=O)N2CCNCC2)n(CCNC(=O)c2cccc(Cl)c2)c1=O` [Example 232, 3-Chloro-N-(2-(2-oxo-4-phenyl-5-(piperazine-1-carbonyl)-3-o-tolyl-2,3-dihydro-1H-imidazol-1-yl)ethyl)benzamide], for which, under setting [1], the IC50 was in the range of 500 to 1000 nM.
In the case of `Cc1ccccc1-n1c(-c2ccccc2)c(C(=O)N2CCNCC2)n(CCNC(=O)c2ccc(Cl)cc2)c1=O` [Example 233, 4-Chloro-N-(2-(2-oxo-4-phenyl-5-(piperazine-1-carbonyl)-3-o-tolyl-2,3-dihydro-1H-imidazol-1-yl)ethyl)benzamide], the 50% inhibitory concentration (IC50) under setting [1] was 500 to 1000 nM.
Same read-out and setting: for `COc1ccccc1C(=O)NCCn1c(C(=O)N2CCNCC2)c(-c2ccccc2)n(-c2ccccc2C)c1=O` [Example 234, 2-Methoxy-N-(2-(2-oxo-4-phenyl-5-(piperazine-1-carbonyl)-3-o-tolyl-2,3-dihydro-1H-imidazol-1-yl)ethyl)benzamide] the value was 500 to 1000 nM; for `COc1ccc(C(=O)NCCn2c(C(=O)N3CCNCC3)c(-c3ccccc3)n(-c3ccccc3C)c2=O)cc1` [Example 235, 4-Methoxy-N-(2-(2-oxo-4-phenyl-5-(piperazine-1-carbonyl)-3-o-tolyl-2,3-dihydro-1H-imidazol-1-yl)ethyl)benzamide], 500 to 1000 nM.
On the same count and under the same terms, for `Cc1ccccc1-n1c(-c2ccccc2)c(C(=O)N2CCNCC2)n(CCNC(=O)C(C)C)c1=O` [Example 236, N-(2-(2-oxo-4-phenyl-5-(piperazine-1-carbonyl)-3-o-tolyl-2,3-dihydro-1H-imidazol-1-yl)ethyl)isobutyramide] the value was more than 1000 nM; for `Cc1ccccc1-n1c(-c2ccccc2)c(C(=O)N2CCNCC2)n(CCNC(=O)C2CCCCC2)c1=O` [Example 237, N-(2-(2-oxo-4-phenyl-5-(piperazine-1-carbonyl)-3-o-tolyl-2,3-dihydro-1H-imidazol-1-yl)ethyl)cyclohexanecarboxamide], more than 1000 nM.
Still for that read-out and setting: for `Cc1ccccc1-n1c(-c2ccccc2)c(C(=O)N2CCNCC2)n(CCNC(=O)CC(C)C)c1=O` [Example 238, 3-Methyl-N-(2-(2-oxo-4-phenyl-5-(piperazine-1-carbonyl)-3-o-tolyl-2,3-dihydro-1H-imidazol-1-yl)ethyl)butanamide] the value was more than 1000 nM.
As to `Cc1ccccc1-n1c(-c2ccccc2)c(C(=O)N2CCNCC2)n(CCCNS(=O)(=O)C(C)C)c1=O` [Example 239, N-(3-(2-oxo-4-phenyl-5-(piperazine-1-carbonyl)-3-o-tolyl-2,3-dihydro-1H-imidazol-1-yl)propyl)propane-2-sulfonamide], the 50% inhibitory concentration (IC50) under setting [1] was more than 1000 nM.
The same measure, in the same setting: for `Cc1ccccc1-n1c(-c2ccccc2)c(C(=O)N2CCNCC2)n(CCCNC(=O)c2ccccc2F)c1=O` [Example 240, 2-Fluoro-N-(3-(2-oxo-4-phenyl-5-(piperazine-1-carbonyl)-3-o-tolyl-2,3-dihydro-1H-imidazol-1-yl)propyl)benzamide] the value was more than 1000 nM; for `Cc1ccccc1-n1c(-c2ccccc2)c(C(=O)N2CCNCC2)n(CCCNC(=O)c2ccccc2Cl)c1=O` [Example 241, 2-Chloro-N-(3-(2-oxo-4-phenyl-5-(piperazine-1-carbonyl)-3-o-tolyl-2,3-dihydro-1H-imidazol-1-yl)propyl)benzamide], more than 1000 nM; for `Cc1ccccc1-n1c(-c2ccccc2)c(C(=O)N2CCNCC2)n(CCCNC(=O)c2cccc(Cl)c2)c1=O` [Example 242, 3-Chloro-N-(3-(2-oxo-4-phenyl-5-(piperazine-1-carbonyl)-3-o-tolyl-2,3-dihydro-1H-imidazol-1-yl)propyl)benzamide], more than 1000 nM.
In the case of `Cc1ccccc1-n1c(-c2ccccc2)c(C(=O)N2CCNCC2)n(CCCNC(=O)c2ccc(Cl)cc2)c1=O` [Example 243, 4-Chloro-N-(3-(2-oxo-4-phenyl-5-(piperazine-1-carbonyl)-3-o-tolyl-2,3-dihydro-1H-imidazol-1-yl)propyl)benzamide], the IC50 under setting [1] is more than 1000 nM.
Take `COc1ccccc1C(=O)NCCCn1c(C(=O)N2CCNCC2)c(-c2ccccc2)n(-c2ccccc2C)c1=O` [Example 244, 2-Methoxy-N-(3-(2-oxo-4-phenyl-5-(piperazine-1-carbonyl)-3-o-tolyl-2,3-dihydro-1H-imidazol-1-yl)propyl)benzamide]: the IC50 under setting [1] was more than 1000 nM.
On the same count and under the same terms, to `COc1ccc(C(=O)NCCCn2c(C(=O)N3CCNCC3)c(-c3ccccc3)n(-c3ccccc3C)c2=O)cc1` [Example 245, 4-Methoxy-N-(3-(2-oxo-4-phenyl-5-(piperazine-1-carbonyl)-3-o-tolyl-2,3-dihydro-1H-imidazol-1-yl)propyl)benzamide] belongs more than 1000 nM.
Still for that read-out and setting: for `Cc1ccccc1-n1c(-c2ccccc2)c(C(=O)N2CCNCC2)n(CCCNC(=O)C(C)C)c1=O` [Example 246, N-(3-(2-oxo-4-phenyl-5-(piperazine-1-carbonyl)-3-o-tolyl-2,3-dihydro-1H-imidazol-1-yl)propyl)isobutyramide] the value was more than 1000 nM; for `Cc1ccccc1-n1c(-c2ccccc2)c(C(=O)N2CCNCC2)n(CCCNC(=O)C2CCCCC2)c1=O` [Example 247, N-(3-(2-oxo-4-phenyl-5-(piperazine-1-carbonyl)-3-o-tolyl-2,3-dihydro-1H-imidazol-1-yl)propyl)cyclohexanecarboxamide], more than 1000 nM.
With `Cc1ccccc1-n1c(-c2ccccc2)c(C(=O)N2CCNCC2)n(CCNC(=O)Oc2ccccc2)c1=O` [Example 248, Phenyl 2-(2-oxo-4-phenyl-5-(piperazine-1-carbonyl)-3-o-tolyl-2,3-dihydro-1H-imidazol-1-yl)ethylcarbamate], the half-maximal inhibitory concentration (IC50) was more than 1000 nM.
With `COC(=O)NCCn1c(C(=O)N2CCNCC2)c(-c2ccccc2)n(-c2ccccc2C)c1=O` [Example 249, Methyl 2-(2-oxo-4-phenyl-5-(piperazine-1-carbonyl)-3-o-tolyl-2,3-dihydro-1H-imidazol-1-yl)ethylcarbamate], the IC50 under setting [1] was more than 1000 nM.
On the same count and under the same terms, to `CCOC(=O)NCCn1c(C(=O)N2CCNCC2)c(-c2ccccc2)n(-c2ccccc2C)c1=O` [Example 250, Ethyl 2-(2-oxo-4-phenyl-5-(piperazine-1-carbonyl)-3-o-tolyl-2,3-dihydro-1H-imidazol-1-yl)ethylcarbamate] belongs more than 1000 nM; to `Cc1ccccc1-n1c(-c2ccccc2)c(C(=O)N2CCNCC2)n(CCNC(=O)OCc2ccccc2)c1=O` [Example 251, Benzyl 2-(2-oxo-4-phenyl-5-(piperazine-1-carbonyl)-3-o-tolyl-2,3-dihydro-1H-imidazol-1-yl)ethylcarbamate], more than 1000 nM.
With `Cc1ccccc1-n1c(-c2ccccc2)c(C(=O)N2CCNCC2)n(CCCNC(=O)Oc2ccccc2)c1=O` [Example 252, Phenyl 3-(2-oxo-4-phenyl-5-(piperazine-1-carbonyl)-3-o-tolyl-2,3-dihydro-1H-imidazol-1-yl)propylcarbamate], the IC50 is more than 1000 nM.
In the case of `COC(=O)NCCCn1c(C(=O)N2CCNCC2)c(-c2ccccc2)n(-c2ccccc2C)c1=O` [Example 253, Methyl 3-(2-oxo-4-phenyl-5-(piperazine-1-carbonyl)-3-o-tolyl-2,3-dihydro-1H-imidazol-1-yl)propylcarbamate], the 50% inhibitory concentration (IC50) under setting [1] was more than 1000 nM.
On to `CCOC(=O)NCCCn1c(C(=O)N2CCNCC2)c(-c2ccccc2)n(-c2ccccc2C)c1=O` [Example 254, Ethyl 3-(2-oxo-4-phenyl-5-(piperazine-1-carbonyl)-3-o-tolyl-2,3-dihydro-1H-imidazol-1-yl)propylcarbamate], for which the half-inhibitory concentration (IC50) under setting [1] is more than 1000 nM.
Consider `Cc1ccccc1-n1c(-c2ccccc2)c(C(=O)N2CCNCC2)n(CCCNC(=O)OCc2ccccc2)c1=O` [Example 255, Benzyl 3-(2-oxo-4-phenyl-5-(piperazine-1-carbonyl)-3-o-tolyl-2,3-dihydro-1H-imidazol-1-yl)propylcarbamate], for which the half-inhibitory concentration (IC50) under setting [1] is more than 1000 nM.

The term IC50 denotes the concentration that gives 50% inhibition.
